ChEMBL document CHEMBL2029287, “Synthesis, study on anti-arthritic, anti-inflammatory activity and toxicity of some novel bis-oxy cyclophane diamides” (Bioorg Med Chem Lett, 2012)

What was measured:
[1] = In vitro antiarthritic activity assessed as inhibition of bovine serum albumin denaturation at 50 ug/mL incubated for 20 mins at 37 degC following rise in temperature up to 57 degC for 3 mins by UV-Visible spectrophotometry; type: functional
[2] = In vitro antiarthritic activity assessed as inhibition of bovine serum albumin denaturation at 400 ug/mL incubated for 20 mins at 37 degC following rise in temperature up to 57 degC for 3 mins by UV-Visible spectrophotometry; type: functional
[3] = In vitro antiarthritic activity assessed as inhibition of bovine serum albumin denaturation at 100 ug/mL incubated for 20 mins at 37 degC following rise in temperature up to 57 degC for 3 mins by UV-Visible spectrophotometry; type: functional
[4] = In vitro antiarthritic activity assessed as inhibition of bovine serum albumin denaturation at 800 ug/mL incubated for 20 mins at 37 degC following rise in temperature up to 57 degC for 3 mins by UV-Visible spectrophotometry; type: functional
[5] = In vitro antiarthritic activity assessed as inhibition of bovine serum albumin denaturation at 200 ug/mL incubated for 20 mins at 37 degC following rise in temperature up to 57 degC for 3 mins by UV-Visible spectrophotometry; type: functional
[6] = Antiinflammatory activity in human RBC assessed as membrane stabilization at 200 ug/mL after 30 mins by UV-Visible spectrophotometry; type: functional, Erythrocyte
[7] = Antiinflammatory activity in human RBC assessed as membrane stabilization at 50 ug/mL after 30 mins by UV-Visible spectrophotometry; type: functional, Erythrocyte
[8] = In vitro antiarthritic activity assessed as inhibition of bovine serum albumin denaturation incubated for 20 mins at 37 degC following rise in temperature up to 57 degC for 3 mins by UV-Visible spectrophotometry; type: functional
Erythrocyte = assay: Antiinflammatory activity in human RBC assessed as membrane stabilization after 30 mins by UV-Visible spectrophotometry; type: functional
[9] = Antiinflammatory activity in human RBC assessed as membrane stabilization at 10 ug/mL after 30 mins by UV-Visible spectrophotometry; type: functional, Erythrocyte
[10] = Antiinflammatory activity in human RBC assessed as membrane stabilization at 100 ug/mL after 30 mins by UV-Visible spectrophotometry; type: functional, Erythrocyte
Salmonella typhimurium [11] = assay: Mutagenic activity in Salmonella typhimurium TA 98 assessed as increase in revertants at 0.012 to 1.660 mg/plate after 48 hrs by Ames test relative to control; type: toxicity, organism-based; conditions: salmonella enterica subsp. enterica serovar typhimurium
Salmonella typhimurium [12] = assay: Mutagenic activity in Salmonella typhimurium TA 98 assessed as increase in revertants at 0.039 to 5 mg/plate after 48 hrs by Ames test in presence of S9 liver fraction relative to control; type: toxicity, organism-based; conditions: salmonella enterica subsp. enterica serovar typhimurium
Salmonella typhimurium [13] = assay: Mutagenic activity in Salmonella typhimurium TA 98 assessed as increase in revertants at 0.012 to 1.660 mg/plate after 48 hrs by Ames test in presence of S9 liver fraction relative to control; type: toxicity, organism-based; conditions: salmonella enterica subsp. enterica serovar typhimurium
Salmonella typhimurium [14] = assay: Mutagenic activity in Salmonella typhimurium TA 98 assessed as increase in revertants at 0.039 to 5 mg/plate after 48 hrs by Ames test relative to control; type: toxicity, organism-based; conditions: salmonella enterica subsp. enterica serovar typhimurium
Salmonella typhimurium [15] = assay: Mutagenic activity in Salmonella typhimurium TA 100 assessed as increase in revertants at 0.012 to 1.660 mg/plate after 48 hrs by Ames test relative to control; type: toxicity, organism-based; conditions: salmonella enterica subsp. enterica serovar typhimurium
Salmonella typhimurium [16] = assay: Mutagenic activity in Salmonella typhimurium TA 100 assessed as increase in revertants at 0.039 to 5 mg/plate after 48 hrs by Ames test in presence of S9 liver fraction relative to control; type: toxicity, organism-based; conditions: salmonella enterica subsp. enterica serovar typhimurium
Salmonella typhimurium [17] = assay: Mutagenic activity in Salmonella typhimurium TA 100 assessed as increase in revertants at 0.039 to 5 mg/plate after 48 hrs by Ames test relative to control; type: toxicity, organism-based; conditions: salmonella enterica subsp. enterica serovar typhimurium
Salmonella typhimurium [18] = assay: Mutagenic activity in Salmonella typhimurium TA 100 assessed as increase in revertants at 0.012 to 1.660 mg/plate after 48 hrs by Ames test in presence of S9 liver fraction relative to control; type: toxicity, organism-based; conditions: salmonella enterica subsp. enterica serovar typhimurium

O=C(O)Cc1ccccc1Nc1c(Cl)cccc1Cl
inhibition [1]: 5.3%
inhibition [2]: 21.3%
inhibition [3]: 10.9%
inhibition [4]: 76.5%
inhibition [5]: 15%

O=C1NCc2ccc(cc2)-c2cccc(c2)-c2ccc(cc2)CNC(=O)c2cccc(c2)OCc2ccccc2COc2cccc1c2
Activity [6]: 92.37%
Activity [7]: 73.33%
inhibition [8]: Dose-dependent effect
inhibition [1]: 25.4%
Activity (Erythrocyte): Dose-dependent effect
inhibition [2]: 81.9%
Activity [9]: 64.03%
inhibition [3]: 50.1%
Activity [10]: 82.3%
inhibition [4]: 92.4%
inhibition [5]: 72.1%

C[C@]12C=CC(=O)C=C1CC[C@@H]1[C@@H]2[C@@H](O)C[C@@]2(C)[C@H]1CC[C@]2(O)C(=O)CO [PREDNISOLONE]
Activity [6]: 91.01%
Activity [7]: 57.94%
Activity [9]: 46.03%
Activity [10]: 84.87%

O=C1COc2cccc(c2)OCC(=O)NCc2ccc(cc2)-c2cccc(c2)-c2ccc(cc2)CN1
Activity [6]: 96.4%
Activity [7]: 85.4%
inhibition [8]: Dose-dependent effect
inhibition [1]: 14.5%
Activity (Erythrocyte): Dose-dependent effect
inhibition [2]: 83.3%
Activity [9]: 74.5%
inhibition [3]: 25.4%
inhibition [4]: 96.8%
inhibition [5]: 60.5%

O=C1NCc2ccc(cc2)-c2cccc(c2)-c2ccc(cc2)CNC(=O)c2cccc(c2)OCc2ccc(cc2)-c2cccc(c2)-c2ccc(cc2)COc2cccc1c2
Ratio (Salmonella typhimurium [11]): <= 2
Ratio (Salmonella typhimurium [12]): <= 2
Activity [6]: 91.59%
Activity [7]: 71.74%
Ratio (Salmonella typhimurium [13]): <= 2
Ratio (Salmonella typhimurium [14]): <= 2
inhibition [8]: Dose-dependent effect
Ratio (Salmonella typhimurium [15]): <= 2
inhibition [1]: 12.6%
Activity (Erythrocyte): Dose-dependent effect
inhibition [2]: 68.6%
Activity [9]: 61.89%
Ratio (Salmonella typhimurium [16]): <= 2
Ratio (Salmonella typhimurium [17]): <= 2
inhibition [3]: 25.2%
Ratio (Salmonella typhimurium [18]): <= 2
Activity [10]: 82.51%
inhibition [4]: 78.2%
inhibition [5]: 48.5%

O=C1NCc2ccc(cc2)-c2cccc(c2)-c2ccc(cc2)CNC(=O)c2cccc(c2)OCc2cccc(c2)COc2cccc1c2
Activity [6]: 93.03%
Activity [7]: 72.53%
inhibition [8]: Dose-dependent effect
inhibition [1]: 19.4%
Activity (Erythrocyte): Dose-dependent effect
inhibition [2]: 78.3%
Activity [9]: 64.27%
inhibition [3]: 44.8%
Activity [10]: 83.07%
inhibition [4]: 90.5%
inhibition [5]: 63.4%

O=C1COc2ccc3ccccc3c2-c2c(ccc3ccccc23)OCC(=O)NCc2ccc(cc2)-c2cccc(c2)-c2ccc(cc2)CN1
Activity [6]: 97.7%
Activity [7]: 86.2%
inhibition [8]: Dose-dependent effect
inhibition [1]: 11.7%
Activity (Erythrocyte): Dose-dependent effect
inhibition [2]: 69.9%
Activity [9]: 77.3%
inhibition [3]: 37%
Activity [10]: 90.6%
inhibition [4]: 81.9%
inhibition [5]: 59.7%

O=C1COc2ccc3ccc(cc3c2)OCC(=O)NCc2ccc(cc2)-c2cccc(c2)-c2ccc(cc2)CN1
Activity [6]: 97.2%
Activity [7]: 85.5%
inhibition [8]: Dose-dependent effect
inhibition [1]: 20.1%
Activity (Erythrocyte): Dose-dependent effect
inhibition [2]: 84.3%
Activity [9]: 76.5%
inhibition [3]: 49.5%
Activity [10]: 90.9%
inhibition [4]: 90.6%
inhibition [5]: 67.9%

O=C1NCc2ccc(cc2)-c2cccc(c2)-c2ccc(cc2)CNC(=O)c2cccc(c2)OCc2ccc(cc2)COc2cccc1c2
Activity [6]: 91.8%
Activity [7]: 66.7%
inhibition [8]: Dose-dependent effect
inhibition [1]: 13.1%
Activity (Erythrocyte): Dose-dependent effect
inhibition [2]: 67.7%
Activity [9]: 57.63%
inhibition [3]: 36.8%
Activity [10]: 82.2%
inhibition [4]: 83.9%
inhibition [5]: 55.3%

O=C1COc2ccccc2-c2ccccc2OCC(=O)NCc2ccc(cc2)-c2cccc(c2)-c2ccc(cc2)CN1
Activity [6]: 96.03%
Activity [7]: 85.65%
inhibition [8]: Dose-dependent effect
inhibition [1]: 40.5%
Activity (Erythrocyte): Dose-dependent effect
inhibition [2]: 81.4%
Activity [9]: 74.2%
inhibition [3]: 61.9%
Activity [10]: 93.77%
inhibition [4]: 98.2%
inhibition [5]: 76.2%

O=C1NCc2ccc(cc2)-c2cccc(c2)-c2ccc(cc2)CNC(=O)c2cccc(c2)OCc2cc(cc([N+](=O)[O-])c2)COc2cccc1c2
Activity [6]: 95.5%
Activity [7]: 75.97%
inhibition [8]: Dose-dependent effect
inhibition [1]: 23.6%
Activity (Erythrocyte): Dose-dependent effect
inhibition [2]: 82.1%
Activity [9]: 66.71%
inhibition [3]: 49.6%
Activity [10]: 85.66%
inhibition [4]: 94.4%
inhibition [5]: 73.1%

O=C1NCc2ccc(cc2)-c2cccc(c2)-c2ccc(cc2)CNC(=O)c2cccc(c2)OCc2ccccc2-c2ccccc2COc2cccc1c2
Ratio (Salmonella typhimurium [11]): <= 2
Ratio (Salmonella typhimurium [12]): <= 2
Activity [6]: 93.3%
Activity [7]: 82.6%
Ratio (Salmonella typhimurium [13]): <= 2
Ratio (Salmonella typhimurium [14]): <= 2
inhibition [8]: Dose-dependent effect
Ratio (Salmonella typhimurium [15]): <= 2
inhibition [1]: 39.2%
Activity (Erythrocyte): Dose-dependent effect
inhibition [2]: 75.7%
Activity [9]: 70.27%
Ratio (Salmonella typhimurium [16]): <= 2
Ratio (Salmonella typhimurium [17]): <= 2
inhibition [3]: 49.5%
Ratio (Salmonella typhimurium [18]): <= 2
Activity [10]: 91.2%
inhibition [4]: 87.8%
inhibition [5]: 67.8%

O=C1NCc2ccc(cc2)-c2cccc(c2)-c2ccc(cc2)CNC(=O)c2cccc(c2)OCc2cccc(n2)COc2cccc1c2
Activity [6]: 95.1%
Activity [7]: 76.93%
inhibition [8]: Dose-dependent effect
inhibition [1]: 22%
Activity (Erythrocyte): Dose-dependent effect
inhibition [2]: 70%
Activity [9]: 70.23%
inhibition [3]: 38.2%
Activity [10]: 84.73%
inhibition [4]: 82.4%
inhibition [5]: 56.3%
